In patent US20180153830A1, “SELECTIVE INHIBITORS OF UNDIFFERENTIATED CELLS” (Yissum Research Development Company of the Hebrew …, priority 2012, published 2018):

Tests used:
[1] = test system: hPSC-derived teratomas; test: Teratoma formation from pre-treated hPSCs in NOD-SCID IL2Rγ−/− mice; type: in vivo, mouse; details: for teratoma formation at the side injected with pre-treated cells: cells pre-treated before injection into mice; for Incidence of teratoma formation, undifferentiated cells only: hPSCs pre-treated 48 h with 20 μM
Procedure: Human embryonic stem cell and induced pluripotent stem cell lines were cultured without feeder cells in CELLSTAR® 6-well tissue culture plates (Greiner Bio-One) pre-coated with Matrigel™, using mTeSR1 defined medium. Cells were treated for 24 hours with either 20 μM PluriSIn #1 (isonicotinic acid N′-phenylhydrazide) in 0.2% DMSO or with 0.2% DMSO, followed by medium replacement and a second treatment for another 24 hours. 48 hours after initial exposure to the tested compound, cells were harvested with trypsin-EDTA and resuspended in a 1:1 mTeSR1:Matrigel™ mixture to a total volume of 200 μl. Cells were then injected subcutaneously to the back of NOD-SCID IL2Rγ−/− mice (Jackson Laboratory). Six weeks after injection mice were sacrificed, the formation of tumors was examined, and the resulting teratomas were photographed, dissected and cryopreserved in O.C.T. compound (Sakura Finetek, Torrance, Calif.).
Alternatively, human embryonic stem cells and induced pluripotent stem cells were spontaneously differentiated in culture for a period of 10 days, by growing them on gelatin-coated culture plates with 85% knockout DMEM medium supplemented with 15% knockout serum replacement, 1 mM glutamine, 0.1 mM β-mercaptoethanol, 1% nonessential amino acids, penicillin (50 U/ml) and streptomycin (50 μg/ml), without basic fibroblast growth factor (bFGF). Retinoic acid was added to the medium at a final concentration of 1 μM. 10 days later, the differentiated cells were harvested and plated at a 1:1 ratio with their undifferentiated parental cells in CELLSTAR® 6-well tissue culture plates (Greiner Bio-One) pre-coated with Matrigel™, with mTeSR1 defined medium. Cells were treated for 24 hours with either 20 μM PluriSIn #1 or 0.2% DMSO, followed by medium replacement and a second treatment for another 24 hours. 48 hours after initial exposure to the compound, cells were harvested with trypsin-EDTA and counted using a Countess automated cell counter (Invitrogen). 1 million viable cells from each condition were resuspended in a 1:1 mTeSR1:Matrigel™ mixture to a total volume of 200 μl. Cells were then injected subcutaneously to the back of NOD-SCID IL2Rγ−/− mice. Each mouse was injected with PluriSIn #1-treated cells into one side of its body and control-treated cells into the other side. Six weeks after injection mice were sacrificed, the formation of tumors was examined, and the resulting teratomas were photographed, dissected and cryopreserved in O.C.T. compound.
To evaluate in vivo tumorigenicity, hPSCs were cultured under the abovementioned conditions in the presence or absence of PluriSIn #1, and the cultures were then injected subcutaneously into immuno-compromised NOD-SCID IL2Rγ−/− mice, which have been previously reported to be especially susceptible to human-derived tumors [Quintana et al., Nature 456:593-598 (2008)]. Mice were sacrificed after 4-6 weeks, and teratoma formation was then assessed.
Similarly, CSES2-SO2 and BJ-iPS28 cell lines were injected into immune-compromised mice (2 mice for each cell line), with control cells and treated cells being injected into the two body sides of the same animal.
The effect of PluriSIns was on teratoma formation was then evaluated in a model designed to simulate a clinical setting. Human ES and iPS cells were spontaneously differentiated in culture for a period of 10 days, and the differentiated cells were then harvested and plated together with undifferentiated cells, in a 1:1 mixture of undifferentiated and differentiated cells, as described in the Materials and Methods section. Following a 48 hour exposure to PluriSIn #1, cells were harvested and injected subcutaneously into NOD-SCID IL2Rγ−/− mice, with each mouse being injected with PluriSin #1-treated cells into one side of its body and with control cells into the other side. The same total number of cells was injected into both sides.

[2] = test system: protein synthesis in H9 embryonic stem cells; test: 35S-Met metabolic labeling of protein synthesis, ES cells; type: cell-based, human; details: 12 hours; 20 μM PluriSIn #1 or 100 nm A939572
Procedure: H9 embryonic stem cells were seeded in Matrigel™ pre-coated 6-well tissue culture plates at a density of 2×10^5 cells/well, and cultured using mTeSR1 defined medium. BJ fibroblasts were seeded in 6-well tissue culture plate at the same density, and cultured with DMEM supplemented with 10% FBS, penicillin (50 U/ml) and streptomycin (50 μg/ml). Cells were treated for 12 hours with either 20 μM PluriSIn #1 (isonicotinic acid N′-phenylhydrazide) or with 0.2% DMSO. Cells were then washed with PBS, and replenished with methionine-deficient medium for 1 hour. Metabolic labeling of the cells was then performed for 1 hour with 10 μCi of […] methionine in 1 ml/well, in the presence of 20 μM PluriSIn #1 or 0.2% DMSO. Cells were washed with PBS containing 10 mM methionine, and were then lysed in 0.4 ml of 30% ice-cold trichloroacetic acid (TCA) containing 10 mM methionine for 15 minutes. […] Total protein concentration was determined using a Bradford Protein Assay (Sigma-Aldrich), and the radioactivity measurements were normalized accordingly. […]
The similarity between PSIs and PluriSIn #1 and #6 is consistent with the fact that UPR can lead to translational attenuation. In order to confirm this link, the effect of PluriSIn #1 treatment on protein synthesis was determined. […]

[3] = test system: undifferentiated CSES2-SO2/3 embryonic stem cells; test: Fluorescence microscopy imaging of undifferentiated CSES2-SO2/3 cells; type: cell-based, human; details: for effect on undifferentiated cells: 24 hours of exposure
Procedure: High content imaging of CSES2-SO2/3 fluorescent cells (mCherry+ or EGFP+) was performed in black clear-bottom 384-well assay plates (Falcon BD), using the Opera high-content screen imaging platform (PerkinElmer). Otherwise, light and fluorescence imaging of all cells was performed in 24-well, 6-well or 10 cm CELLSTAR® plates (Greiner Bio-One), using an Olympus CellR imaging station. Light imaging of developing mouse embryos was performed in 35 mm culture dishes (Falcon BD), using an Olympus IX70 microscope.
CSES2-SO2/3 is a genetically-labeled cell line that expresses mCherry under the promoter of the pluripotency hallmark gene OCT-4, and GFP under the promoter of the early endodermal marker SOX17. Therefore, these cells are red while undifferentiated, and become green upon their differentiation into the endodermal lineage [Kopper & Benvenisty, Stem Cell Research 8:335-345 (2011)]. Green early endodermal progenitor cells were generated from the red undifferentiated cells, using an 8-day differentiation protocol as described by Duan et al. [Stem Cells 28:674-686 (2010)].
In order to further verify the selectivity of the PluriSIns, and rule out any potential assay-related interference, undifferentiated and differentiated CSES2-SO2/3 cells were subjected to microscopy imaging after 24 hours of exposure to PluriSIns.

Row | Compound | teratoma formation at the side injected with pre-treated cells [1] | decrease in protein synthesis, ES cells [2] | Incidence of teratoma formation, 1:1 mixture of undifferentiated and differentiated cells ([1]; cells pre-treated 48 h with 20 μM, injected subcutaneously) | Incidence of teratoma formation, undifferentiated cells only ([1]; injected subcutaneously) | Incidence of teratoma formation, undifferentiated cells only ([1]; injected subcutaneously, listed as PluriSn #1) | mice that developed teratomas, H9 ES cells ([1]; treated H9 ES cells injected) | effect on undifferentiated cells [3] | effect on undifferentiated cells in a mixture of differentiated and undifferentiated cells ([3]; mixture of CSES2-SO2/3 ES and derived differentiated cells)
1 | CNC(=O)c1cccc(NC(=O)N2CCC(Oc3ccccc3Cl)CC2)c1 [A939572, 4-(2-chlorophenoxy)-N-(3-(methylcarbamoyl)-phenyl)piperidine-1-carboxamide, reference compound] | protective effect against teratoma formation | approximately 50% | – | – | – | – | – | –
2 | O=C(NNc1ccccc1)c1ccncc1 [PluriSIn #1, isonicotinic acid N′-phenylhydrazide] | no teratoma is visible | approximately 30% | 0/4 | 11/11 | 0/11 | 0/3 | eliminated undifferentiated cells | also eliminated undifferentiated cells
3 | Cc1ccc(NNC(=O)C(O)(c2ccccc2)c2cccs2)cc1 (centres unmarked) [PluriSIn #6, 2-hydroxy-2-(thiophen-2-yl)-2-phenylacetic acid 4-methyl-N′-phenylhydrazide] | – | – | – | – | – | – | eliminated the red undifferentiated cells | –
